Reference: patent US20210380547A1, “UREA DERIVATIVES FOR TREATING AND/OR PREVENTING CANCER” (CENTRE NATIONAL DE LA RECHERCHE SCIENTIFIQUE, priority 2018, published 2021)

Columns and labels:
[1] = test system: VEGFA-dependent HuVEC migration; assay: Boyden chamber migration assay, VEGFA-dependent; type: cell-based; details: VEGFA (50 ng/ml), same concentration
Experimental: (§1) CXCL7 or VEGFA-stimulated chemotaxis assays were monitored using modified Boyden chambers containing polycarbonate membranes (8-μm pores, Transwell; Corning, Sigma). Cells were seeded on the upper side of the filters and chambers were placed on 24-well plates containing CXCL7 (50 ng/ml) or VEGFA (50 ng/ml). Cells were allowed to migrate for 24 hr at 37° C. in 5% CO2. Migratory cells on the lower membrane surface were fixed in 3% paraformaldehyde, stained with 0.1% crystal violet.

TF and CC cells = assay: FACS apoptosis markers, primary RCC cells; type: cell-based, human; details: 1 μM, 48 h
Experimental: (§2) C: Primary RCC cells (TF and CC) and normal renal cells (15S) were treated with compound #1 (1 to 5 μM) for 48 h. Cells were stained with the PI/annexin-V-fluos staining kit according to the manufacturer's indications. Histograms show both annexin-V+/PI− cells (open bars) and annexin-V+/PI+ cells (filled bars). *P<0.05; **P<0.01; ***P<0.001.
(§3) Apoptosis analysis: After stimulation, cells were washed with ice-cold PBS and were stained with the annexin-V-fluos staining kit (Roche, Meylan, France) according to the manufacturer's procedure. Fluorescence was measured by using the FL2 (AV) and FL3 (propidium iodide, PI) channels of a fluorescence-activated cell sorter apparatus (Calibur cytometer).

[2] = test system: CXCL7-dependent HuVEC migration; assay: Boyden chamber migration assay, CXCL7-dependent; type: cell-based; details: CXCL7 (50 ng/ml), 24 hr
Experimental: as §1

healthy cells 15S = assay: FACS apoptosis markers, normal renal cells; type: cell-based, human; details: 48 h
Experimental: as §2, §3

CAL27RR = assay: XTT cell viability assay, CAL27RR (cisplatin-resistant); type: cell-based, human
Experimental: A, B: Naive (Cal27, A), and cisplatine-resistant (Cal27R, B) Cal27 cells, were treated with compound #1 or cisplatine (1 to 10 μM) for 48 hr. Cell viability was measured by XTT assays;
C, D: Cal27 (C), cal27R (D), were treated with 2.5 μM compound #1, 2.5 μM cisplatin for 24 h to 96 h. The metabolism of cells was measured by XTT assay.
(§4) Fifty microliters of sodium 3′-[1-phenylaminocarbonyl)-3,4-tetrazolium]-bis(4-methoxy-6-nitro) benzene sulfonic acid hydrate (XTT) reagent was added to each well. The assay is based on the cleavage of the yellow tetrazolium salt XTT to form an orange formazan dye by metabolically active cells. The absorbance of the formazan product, reflecting cell viability, was measured at 490 nm. Each assay was performed in quadruplicate.
(§5) Compounds #1-#14 have been assayed as potential anti-proliferative agents against a panel of human breast head and neck, and kidney tumor cells and hematological malignancies, selected on the basis of their aggressiveness (e.g. incurable triple-negative breast cancer cells: MDA-MB-231; kidney ccRCC cells: RCC4, A498 and 786-O and 786R; head and neck cancer cells: CAL33, CAL33RR, CAL27, and CAL27RR; acute myeloid cell lines: OCI-AML2, OCI-AML3, MolM13, and MolM14; myelodysplastic cell line: SM1; and chronic myeloid cell line: CML). All these cell lines share as common denominator the expression of CXCR1 and CXCR2. The EC50 values have been measured by a XTT colorimetric assay, and compared to those of SB-225002, used as a reference; the results are listed in Table 1.

CXCR2 = molecular target: T1, CXCR2 (Homo sapiens, UniProt P25025); assay: CXCR2 membrane level by flow cytometry after CXCL8 stimulation in HuVEC; type: cell-based; details: 2.5 μM, CXCL8 25 ng/ml 1 h
T1 construct: endogenous in cells; host or cells: HuVEC (healthy endothelial cells)
Experimental: A: HuVEC were stimulated with 25 ng/ml CXCL8 during 1 h. Membrane-associated CXCR2 protein levels were quantified by flow cytometry;
CXCR2 measurement: After stimulation, cells were washed with PBS and were stained with the CXCR2-PE antibody (Miltenyi) for 30 min at room temperature. Fluorescence was measured by using the FL2 (PE) channels of a fluorescence-activated cell sorter apparatus (Calibur cytometer).
Since CXCR2 is internalized in endothelial cells when activated by CXCL-8, the effect of compound #1 has been investigated on CXCR2 recycling on HuVEC cells.

DAOY and HD-MB03 cells [3] = assay: Proliferation test, medulloblastoma cells; type: cell-based; details: 1 μM, cell counts days 1 to 8, vs DMSO
Experimental: FIG. 7: Inhibition of proliferation of medulloblastoma cells by compound #1. Cells were treated or not with 1 μM compound #1 for the indicated days. Cells were counted at the indicated days. * p<0.05; ** p<0.01; *** p<0.001.
1500 DAOY and HD-MB03 cells were seeded in a 6-well plate with or without treatment (1 μM of compound #1 or DMSO as control “CONT”), at 37° C. in a 5% CO2 incubator. Cells were dissociated using trypsone 1X-EDTA (Gibco® Life Technologies) and were counted with Coulter Beckman® counter (Villepinte) at days 1, 4, 6, 7, and 8. Each assay was performed in triplicate.

SKM1 = assay: XTT cell viability assay, SKM1; type: cell-based, human; details: Homo sapiens, SKM-1; XTT assay (48 h); standard deviation of 10%; read-out: EC50 (μM) MDS SKM1
Experimental: as §4, §5

[4] = Stability in cellulo by UPLC/HRMS on 786-O cell line; type: in vitro ADME; details: 24h treatment at room temperature
From the text: The stability of compound #1 was first assayed through UPLC/HRMS analyses in cellulo on the 786-O cell line.

K562 = assay: XTT cell viability assay, K562; type: cell-based, human; details: Homo sapiens, K562; XTT assay (48 h); standard deviation of 10%; read-out: EC50 (μM) CML K562
Experimental: as §4, §5

DAOY and HD-MB03 cells [5] = assay: Clonogenicity, medulloblastoma cells; type: cell-based; details: 1 μM, Day+7 (DAOY), Day+11 (HD-MB03)
Experimental: FIG. 8: Inhibition of proliferation of medulloblastoma cells by compound #1. Clonogenicity tests; […].
150 DAOY cells and 300 HD-MB03 cells were seeded in a 6-well plate with or without treatment (1 μM of compound #1 or DMSO as control “CONT”). At Day+7 (DAOY) and Day+11 (HD-MB03), cells were mixed with absolute ethanol for 20 minutes, washed with PBS and colored with Giemsa 50% for 30 minutes. After washing, the boxes were scanned and the number of clones was quantified using ImageJ® software. Each assay was performed in duplicate.

T1 sequence (P25025 whole entry): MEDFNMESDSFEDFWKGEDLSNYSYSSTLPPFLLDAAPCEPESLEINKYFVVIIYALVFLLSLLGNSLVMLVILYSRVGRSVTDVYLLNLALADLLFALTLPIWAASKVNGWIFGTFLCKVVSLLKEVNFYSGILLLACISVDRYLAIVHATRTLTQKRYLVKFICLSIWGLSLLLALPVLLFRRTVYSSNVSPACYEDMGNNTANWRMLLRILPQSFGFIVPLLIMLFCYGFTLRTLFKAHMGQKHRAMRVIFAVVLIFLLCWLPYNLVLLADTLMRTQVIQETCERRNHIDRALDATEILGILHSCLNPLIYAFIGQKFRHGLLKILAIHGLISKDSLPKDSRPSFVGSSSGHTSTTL

O=C(Nc1cccc(Cl)c1)Nc1nc2ccc([N+](=O)[O-])cc2s1 [Compound #1, 1-(3-chlorophenyl)-3-(6-nitrobenzo[d]thiazol-2-yl)urea]
activity on VEGFA-stimulated HuVEC motility [1]: does not exert any visible activity | apoptosis markers in TF and CC cells (TF and CC cells): puts into exergue the apoptosis markers in TF and CC cells | decrease of HuVECs motility [2]: more than 50% | apoptosis markers in healthy cells 15S (healthy cells 15S): not the case with healthy cells 15S | time of treatment to total inhibition of proliferation (CAL27RR; Cal27R cells, 2.5 μM, XTT 24 h to 96 h): approximately 70 hours | EC50 (CAL27RR; Homo sapiens, light or radiation study, XTT assay (48 h), resistant to irradiation and cisplatin, standard deviation of 10%, read-out: EC50 (μM) Head and Neck CAL27RR): 2 µM | CXCL-8-dependent internalization of CXCR2 (CXCR2): prevents the CXCL-8-dependent internalization of CXCR2 | proliferation of DAOY and HD-MB03 cells (DAOY and HD-MB03 cells [3]): significatively reduces the proliferation | EC50 (SKM1): 5 µM | degradation (stability in cellulo) [4]: No degradation | EC50 (K562): 2 µM | formation of DAOY and HD-MB03 clones (DAOY and HD-MB03 cells [5]): significatively reduces the formation
